Results: PubChem BioAssay (NCI)
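Growth conditions: 96-well plates. Treatment: test compound, 48 hours, 5 concentrations. Analysis: linear interpolation between bracketing concentrations; unreached endpoints set to highest concentration. Abbreviation: GI50, concentration required for 50% inhibition of growth. The concentration for full growth arrest is given as TGI.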

Columns and labels:
Test in all cases: growth of human tumour cells (NCI), 48 h
[1] = test system: HCC-2998 colon
[2] = test system: HOP-92 NSCLC
[3] = test system: HS 578T breast
[4] = test system: HT29 colon
[5] = test system: IGROV1 ovarian
[6] = test system: MALME-3M melanoma
[7] = test system: U251 CNS
[8] = test system: UACC-62 melanoma
[9] = test system: SK-MEL-5 melanoma
[10] = test system: UACC-257 melanoma

Row | SMILES | GI50 [1] | TGI [1] | GI50 [2] | TGI [2] | GI50 [3] | TGI [3] | GI50 [4] | TGI [4] | GI50 [5] | TGI [5] | GI50 [6] | TGI [6] | GI50 [7] | TGI [7] | GI50 [8] | TGI [8] | TGI [9] | TGI [10] | GI50 [9] | GI50 [10]
1 | Cc1nc2n(c(=O)c1CCN1CCC(c3noc4cc(F)ccc34)CC1)CCCC2 | > 50 µM | > 50 µM | > 50 µM | > 50 µM | > 50 µM | > 50 µM | > 50 µM | > 50 µM | > 50 µM | > 50 µM | > 50 µM | > 50 µM | > 50 µM | > 50 µM | > 50 µM | > 50 µM |  |  |  | 
2 | N#CC1(C=O)c2ccccc2C=CN1C(=O)c1ccccc1 (stereo not drawn) |  | > 100 µM |  | 65.9 µM |  |  |  | > 100 µM |  | > 100 µM |  | > 100 µM |  | > 100 µM |  | > 100 µM | 47.3 µM | > 100 µM |  | 
3 | O=C(NCCCCCCCCNC(=O)c1cccc2ccccc12)c1cccc2ccccc12 |  | > 100 µM |  | 20.4 µM |  |  |  | > 100 µM |  | > 76.1 µM |  | > 100 µM |  | 45.6 µM |  | > 79.9 µM | > 100 µM | > 100 µM |  | 
4 | COc1ccc(CNc2nc3c(NC(C)=O)cc(C(F)(F)F)cc3nc2-c2ccccc2)cc1OC |  | > 100 µM |  |  |  |  |  | > 100 µM |  | > 100 µM |  | > 100 µM |  | > 100 µM |  | > 100 µM | > 100 µM | > 100 µM |  | 
5 | C[C@H]1C(Oc2ccc(O)cc2)OC2OC3(C)CCC4[C@H](C)CCC1C24OO3 (stereo partly drawn) |  |  | 11.5 µM | 25 µM | 11.9 µM | 32.7 µM | 8.86 µM | 27.4 µM | 16.7 µM | 32.5 µM | 14.1 µM | 28.9 µM | 11 µM | 25.8 µM | 12.3 µM | 25.5 µM | 27.3 µM | 28.4 µM | 13.2 µM | 13.1 µM
6 | CC(=O)[O-].O=C([CH-]C(=O)c1ccccc1)c1ccccc1.O=C([CH-]C(=O)c1ccccc1)c1ccccc1.[Y+3] | 5.72 µM | 19.7 µM | 4.04 µM | 18.9 µM |  |  | 7.69 µM | 20.7 µM | 6.94 µM | 35.8 µM | 8.02 µM | 39.5 µM | 3.91 µM | 31.5 µM | 3.8 µM | 17.8 µM | 14.2 µM | 31.7 µM | 3.56 µM | 9.8 µM
7 | CCC1CCc2nc3sc(C(=O)Nc4ccccc4C)c(N)c3cc2C1 (stereo not drawn) | 4.42 µM | > 100 µM | 0.637 µM | > 100 µM | 0.514 µM | > 100 µM |  |  | > 100 µM | > 100 µM |  |  | 0.648 µM | > 100 µM | 0.329 µM | > 100 µM | > 100 µM | > 100 µM | 0.301 µM | 0.486 µM
8 | CN(C)c1n/c(=N/c2ncn[nH]2)ss1 |  | > 100 µM |  | > 100 µM |  |  |  | > 100 µM |  | > 100 µM |  | > 100 µM |  | > 100 µM |  | > 100 µM | > 100 µM | > 100 µM |  | 
